Where “and” joins values, the source holds several entries; their conditions need not be identical. Equal entries are not always repeated. Inconclusive results and toxic doses are left out. Cut-off read from the data, not from the text of the source: active = T/C of 150% or more; inactive = T/C below 125%.
Tested on: L1210 leukemia ip in BDF1 mice, survival T/C
Test: NCI In Vivo Anticancer Drug Screen. Data for tumor model L1210 Leukemia (intraperitoneal) in B6D2F1 (BDF1) mice
Conditions: endpoint: mean survival time, higher = longer survival
In short: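 Antitumor effect is assessed in tumor-bearing animals. Survival in the compound arm is compared with a vehicle-dosed control arm and expressed as their quotient.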

[1] = dose: 50.0 mg/kg/injection, schedule: Q01DX009 (ip), vehicle: Klucel (hydroxypropylcellulose) (HPC)
[2] = dose: 100.0 mg/kg/injection, schedule: Q01DX009 (ip), vehicle: Klucel (hydroxypropylcellulose) (HPC)
[3] = dose: 200.0 mg/kg/injection, schedule: Q01DX009 (ip), vehicle: Klucel (hydroxypropylcellulose) (HPC)
[4] = dose: 100.0 mg/kg/injection, schedule: Q04DX003 (ip), vehicle: saline with Tween-80
[5] = dose: 200.0 mg/kg/injection, schedule: Q04DX003 (ip), vehicle: saline with Tween-80
[6] = dose: 400.0 mg/kg/injection, schedule: Q04DX003 (ip), vehicle: saline with Tween-80
[7] = dose: 100.0 mg/kg/injection, schedule: Q04DX002 (ip), vehicle: saline with Tween-80
[8] = dose: 200.0 mg/kg/injection, schedule: Q04DX002 (ip), vehicle: saline with Tween-80
[9] = dose: 400.0 mg/kg/injection, schedule: Q04DX002 (ip), vehicle: saline with Tween-80
[10] = dose: 50.0 mg/kg/injection, schedule: Q01DX009 (ip), vehicle: saline with Tween-80
[11] = dose: 100.0 mg/kg/injection, schedule: Q01DX009 (ip), vehicle: saline with Tween-80
[12] = dose: 200.0 mg/kg/injection, schedule: Q01DX009 (ip), vehicle: saline with Tween-80
[13] = dose: 100.0 mg/kg/injection, schedule: Q04DX003 (ip), vehicle: Klucel (hydroxypropylcellulose) (HPC)
[14] = dose: 100.0 mg/kg/injection, schedule: Q04DX003 (ip), vehicle: saline
[15] = dose: 200.0 mg/kg/injection, schedule: Q04DX003 (ip), vehicle: Klucel (hydroxypropylcellulose) (HPC)
[16] = dose: 200.0 mg/kg/injection, schedule: Q04DX003 (ip), vehicle: saline
[17] = dose: 400.0 mg/kg/injection, schedule: Q01DX009 (ip), vehicle: Klucel (hydroxypropylcellulose) (HPC)
[18] = dose: 400.0 mg/kg/injection, schedule: Q04DX003 (ip), vehicle: Klucel (hydroxypropylcellulose) (HPC)
[19] = dose: 400.0 mg/kg/injection, schedule: Q04DX003 (ip), vehicle: saline
[20] = dose: 75.0 mg/kg/injection, schedule: Q01DX001 (ip), vehicle: saline
[21] = dose: 100.0 mg/kg/injection, schedule: Q01DX001 (ip), vehicle: saline
[22] = dose: 200.0 mg/kg/injection, schedule: Q01DX001 (ip), vehicle: saline
[23] = dose: 400.0 mg/kg/injection, schedule: Q01DX001 (ip), vehicle: saline

Measured: T/C

CSc1nccnc1C
inactive: [1] 119 % of control | [2] 96 % of control | [3] 105 % of control

O=C(O)C12CC3CC1C2C3
inactive: [4] 103 % of control | [5] 91 % of control | [6] 86 % of control

COC(C(=O)O)c1ccc(Cl)cc1 (stereo unspecified)
inactive: [7] 98 % of control | [8] 91 % of control | [9] 91 % of control

CSc1ccc(NC(=O)NCCCCCCNC(=O)Nc2ccc(SC)cc2)cc1
inactive: [10] 93 % of control | [11] 96 % of control | [12] 90 % of control

CC(=O)NC1CC2c3ccccc3C1([N+](=O)[O-])c1ccccc12 (stereo unspecified)
inactive: [2] 107 % of control | [13] 107 % of control | [14] 107 % of control | [3] 101 % of control | [15] 105 % of control | [16] 105 % of control | [17] 97 % of control | [18] 97 % of control | [19] 97 % of control

Clc1c(Cl)c(Cl)c2n[nH]nc2c1Cl
inactive: [20] 96 % of control

COc1cc2c(cc1OC)C(NNC(C)=O)CCCC2 (stereo unspecified)
inactive: [21] 97 % of control | [22] 97 % of control | [23] 103 % of control

C/C(=C\C(=O)O)CBr
inactive: [10] 93 % of control | [11] 86 % of control

O=[N+]([O-])c1ccc(Oc2ccc[n+]([O-])c2)nc1
inactive: [2] 103 % of control | [13] 93 % of control | [3] 101 % of control | [15] 96 % of control | [17] 98 % of control | [18] 95 % of control

CNC(=O)c1ccccc1
inactive: [14] 104 % of control | [16] 98 % of control | [19] 98 % of control

COc1ccc(C(=Cc2ccccc2Br)c2ccc(OC)cc2)cc1
inactive: [11] 102 % of control | [4] 106 % of control | [12] 98 % of control | [5] 98 % of control | dose: 400.0 mg/kg/injection, schedule: Q01DX009 (ip), vehicle: saline with Tween-80 93 % of control | [6] 92 % of control

S=P(Oc1cc(Cl)c(Cl)cc1Cl)(N1CCN(c2ccccc2)CC1)N1CCN(c2ccccc2)CC1
inactive: [21] 90 % of control | [22] 90 % of control | [23] 88 % of control

CCOC(=O)CCCCCCCCCCOc1ccc(C(C)=O)cc1
inactive: [13] 94 % of control | [15] 100 % of control | [18] 97 % of control

CCOc1ccc(N=Cc2cc(Br)ccc2O)cc1
inactive: [7] 96 % of control | [8] 100 % of control | [9] 100 % of control

O=c1[nH]nc(CCc2ccccc2)o1
inactive: [21] 97 % of control | [14] 98 % of control | [22] 92 % of control | [16] 93 % of control | [23] 95 % of control | [19] 113 % of control

CN1CC2(Cc3ccccc3)c3ccccc3NC2(NC(=O)CCl)C1=O (stereo unspecified)
inactive: dose: 25.0 mg/kg/injection, schedule: Q04DX002 (ip), vehicle: saline with Tween-80 87 % of control | dose: 50.0 mg/kg/injection, schedule: Q04DX002 (ip), vehicle: saline with Tween-80 90 % of control | [7] 91 % of control

COCCN=C(N)C(N)=NCCOC
inactive: [4] 102 % of control | [14] 97 % of control | [5] 102 % of control | [16] 100 % of control | [6] 95 % of control | [19] 88 % of control

O=[N+]([O-])c1cc([N+](=O)[O-])c(NN(c2ccccc2)c2cccc3ccccc23)c([N+](=O)[O-])c1
inactive: [1] 101 % of control | [2] 101 % of control | [13] 96 % of control | [3] 102 % of control | [15] 94 % of control | [17] 98 % of control | [18] 94 % of control

O=CN/N=C/c1cccc([N+](=O)[O-])c1
inactive: [20] 95 % of control | dose: 150.0 mg/kg/injection, schedule: Q01DX001 (ip), vehicle: saline 95 % of control | dose: 300.0 mg/kg/injection, schedule: Q01DX001 (ip), vehicle: saline 92 % of control

CCCNC(=O)OC/C=C\CC(Cl)(Cl)Cl
inactive: [1] 97 % of control | [2] 96 % of control | [13] 87 % of control | [3] 94 % of control | [15] 94 % of control | [18] 86 % of control

CCCSC(=O)N(CC)C(=NCC)c1ccc(NC(=O)c2ccc(C(=O)Nc3ccc(C(=NCC)N(CC)C(=O)SCCC)cc3)cc2)cc1
inactive: dose: 2.25 mg/kg/injection, schedule: Q01DX015 (ip), vehicle: methylcellulose (MC) 104 % of control | dose: 4.5 mg/kg/injection, schedule: Q01DX015 (ip), vehicle: methylcellulose (MC) 100 % of control | dose: 9.0 mg/kg/injection, schedule: Q01DX015 (ip), vehicle: methylcellulose (MC) 100 % of control | dose: 18.0 mg/kg/injection, schedule: Q01DX015 (ip), vehicle: methylcellulose (MC) 102 % of control | dose: 75.0 mg/kg/injection, schedule: Q01DX015 (ip), vehicle: methylcellulose (MC) 90 % of control | dose: 150.0 mg/kg/injection, schedule: Q01DX015 (ip), vehicle: methylcellulose (MC) 86 % of control

CCC(CC)=NNC(N)=O
inactive: dose: 25.0 mg/kg/injection, schedule: Q04DX003 (ip), vehicle: Klucel (hydroxypropylcellulose) (HPC) 104 % of control | dose: 50.0 mg/kg/injection, schedule: Q04DX003 (ip), vehicle: Klucel (hydroxypropylcellulose) (HPC) 100 % of control | [13] 103 % of control and 104 % of control

CCOc1ccc(OC/C=C(\C)CC/C=C(/C)CC)cc1
inactive: [7] 96 % of control | [8] 99 % of control | [9] 108 % of control

Cc1ccc(C(=O)C(F)(F)C(F)(F)C(F)(F)C(F)(F)C(F)(F)C(F)(F)C(F)(F)F)cc1
inactive: [21] 105 % of control | [14] 93 % of control | [22] 102 % of control | [16] 95 % of control | [23] 103 % of control | [19] 92 % of control

S=C=NCc1cccc2ccccc12
inactive: dose: 2.5 mg/kg/injection, schedule: Q01DX009 (ip), vehicle: carboxymethylcellulose (CMC) 90 % of control | dose: 5.0 mg/kg/injection, schedule: Q01DX009 (ip), vehicle: carboxymethylcellulose (CMC) 94 % of control | dose: 5.0 mg/kg/injection, schedule: Q04DX003 (ip), vehicle: carboxymethylcellulose (CMC) 101 % of control | dose: 10.0 mg/kg/injection, schedule: Q01DX001 (ip), vehicle: carboxymethylcellulose (CMC) 93 % of control | dose: 10.0 mg/kg/injection, schedule: Q01DX009 (ip), vehicle: carboxymethylcellulose (CMC) 105 % of control | dose: 10.0 mg/kg/injection, schedule: Q04DX003 (ip), vehicle: carboxymethylcellulose (CMC) 97 % of control | dose: 20.0 mg/kg/injection, schedule: Q01DX001 (ip), vehicle: carboxymethylcellulose (CMC) 87 % of control | dose: 20.0 mg/kg/injection, schedule: Q04DX003 (ip), vehicle: carboxymethylcellulose (CMC) 97 % of control

CCOC(CNC(=O)c1ccc(S(=O)(=O)F)cc1)OCC
inactive: dose: 100.0 mg/kg/injection, schedule: Q04DX003 (ip), vehicle: alcohol 107 % of control | dose: 200.0 mg/kg/injection, schedule: Q04DX003 (ip), vehicle: alcohol 101 % of control | dose: 400.0 mg/kg/injection, schedule: Q04DX003 (ip), vehicle: alcohol 98 % of control
